Results reported in patent US8802815B2, “Peptides and uses thereof to modulate IGF-1 synthesis and IGF-1 receptor expression” (Universite Pierre et Marie Curie (Paris 6), priority 2009, dated 2014).

Experiments:
Type in all cases: cell-based, mouse
chondrocytes [1] = assay: [3H] thymidine incorporation in DNA (cell proliferation), primary chondrocytes culture
Description: To assess peptide ability to induce cell proliferation, inventors carried out a test showing [H^3] thymidine incorporation during DNA duplication according to Kurz et al., 1997 method. This test was adapted to the model used by the inventors, namely a primary mouse embryonic chondrocytes culture.
Chondrocytes, obtained by dissociation of mouse mandible condyles (MCDC) were incubated in a culture medium permitting chondrogenesis, in particular, 5×10^5 cells/ml were incubated with 1 μCi [^3H]-thymidine/ml of medium (Amersham, code TRA120, stock 1 mCi/ml, specific activity 5 Ci/mmol) for 3 hours at 37° C. in DMEM medium (Dulbecco's modified Eagle's medium) fetal calf serum (FCS) free but supplemented with 100 μg/ml of ascorbic acid, 1 mmol/L of calcium chloride, 10 mmol/L of 3-glycerophosphate, and antibiotics. Same medium, in which 5 μl of [^3H]-thymidine are added for 2 minutes, is used as negative control. Supernatant was removed and cells were washed twice with saline solution buffered at pH 7.0 (PBS), the cells are washed twice (for 5 minutes) with methanol. Then the cells are washed three times with a 10% trichloroacetic acid (TCA) cold solution. After washing cells twice with DDW, cells are incorporated in 200 μl of 0.3M NaOH for 15 minutes. The cells are then transferred in 3 ml of a neutralized scintillation fluid with 200 μl of 0.3M HCl. […]

IGF-1R = IGF-1R expression in chondrocytes in culture, optical density (FIG. 2)
Text: (§1) Inventors investigated P70 effect on IGF-1 synthesis and on expression of its receptor (IGF-1R) by means of chondrocytes in culture.

IGF-1 [2] = assay: IGF-1 production in chondrocytes in culture (FIG. 2)
Text: as §1

IGF-1 receptor = assay: IGF-1R expression by immunohistochemistry, 5-day primary chondrocytes culture (FIG. 3); conditions: IHC, 5-day culture
IGF-1 [3] = assay: IGF-1 synthesis by immunohistochemistry, primary chondrocytes culture (FIG. 4); conditions: IHC
Text: Moreover (FIG. 4), P70 inhibits IGF-1 synthesis at 10^−6M (30% inhibition at a high concentration of peptide) and stimulates IGF-1 synthesis at 10^−7M (90% increase at a low concentration of peptide).

type II collagen = assay: Type II collagen production by immunochemistry, chondrocytes culture (FIG. 5); conditions: 10^-7M peptide; 5th day of culture
Description: The mouse embryos chondrocytes obtained according to same protocol as described above were cultured and incubated at a 10^−7M peptide P70 concentration. […] In fact, an increase of 150% is observed relative to the untreated control.

chondrocytes [4] = assay: Chondrogenesis: cartilage nodule formation in chondrocytes culture (FIG. 6); conditions: 10^-7M peptide; 7th day of incubation; vs untreated chondrocytes
Description: In FIG. 6, the peptide P70 effect at a concentration of 10^−7M is compared with untreated chondrocytes (control). At 7th day of incubation, in the presence of the peptide, accelerated formation of nodules of cartilage is clearly observed. The cartilage nodules development (volume/culture) is 85% accelerated.

- effect on the production of IGF-1 receptor (IGF-1R; 10^-6M peptide): virtually inhibits
- effect on expression of IGF-1 receptor (IGF-1R) (IGF-1R; 10^-7 M peptide): important stimulation effect
- inhibition of IGF-1 receptor expression (IGF-1 receptor; 10^-6 M peptide): 36.8%
- increase of IGF-1 receptor expression (IGF-1 receptor; 10^-7 M peptide): 23.8%
Substance: Acetyl-SNFGSRKFSYKAKFWTDVTTSELG-amide (Ac-SNFGSRKFSYKAKFWTDVTTSELG-NH2) [P70, 24-mer peptide of the invention, N-terminal acetyl, C-terminal amide]
- stimulatory effect on the proliferation of chondrocytes, greater than the untreated control (chondrocytes [1]; 10^-6M peptide, 3 hours): 53%
- stimulation effect on the proliferation of chondrocytes (chondrocytes [1]; 10^-7M peptide): not observed
- effect on the production of IGF-1 (IGF-1 [2]; 10^-6M peptide): virtually inhibits
- effect on IGF-1 production (IGF-1 [2]; 10^-7 M peptide): important stimulation effect
- inhibition of IGF-1 synthesis (IGF-1 [3]; 10^-6M peptide): 30%
- increase of IGF-1 synthesis (IGF-1 [3]; 10^-7M peptide): 90%
- increase of type II collagen production relative to the untreated control (type II collagen): 150%
- acceleration of cartilage nodules development (volume/culture) (chondrocytes [4]): 85%
